Inconclusive results and toxic doses are left out. No stated cut-off is given here; in the data, active means T/C of 150% or more; inactive means T/C below 125%.
Tested on: L1210 leukemia ip in BDF1 mice, survival T/C
Assay: NCI In Vivo Anticancer Drug Screen. Data for tumor model L1210 Leukemia (intraperitoneal) in B6D2F1 (BDF1) mice
Details: endpoint: mean survival time, higher = longer survival
Method in brief: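 Tumor cells were implanted, animals were treated, and survival was followed. The result divides the treated measurement by the vehicle-control measurement.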

[1] = dose: 100.0 mg/kg/injection, schedule: Q01DX001 (ip), vehicle: saline with Tween-80
[2] = dose: 200.0 mg/kg/injection, schedule: Q01DX001 (ip), vehicle: saline with Tween-80
[3] = dose: 400.0 mg/kg/injection, schedule: Q01DX001 (ip), vehicle: saline with Tween-80
[4] = dose: 100.0 mg/kg/injection, schedule: Q04DX003 (ip), vehicle: saline
[5] = dose: 200.0 mg/kg/injection, schedule: Q04DX003 (ip), vehicle: saline
[6] = dose: 100.0 mg/kg/injection, schedule: Q04DX003 (ip), vehicle: other
[7] = dose: 200.0 mg/kg/injection, schedule: Q04DX003 (ip), vehicle: other
[8] = dose: 400.0 mg/kg/injection, schedule: Q04DX003 (ip), vehicle: other
[9] = dose: 100.0 mg/kg/injection, schedule: Q01DX001 (ip), vehicle: saline
[10] = dose: 100.0 mg/kg/injection, schedule: Q01DX009 (ip), vehicle: saline with Tween-80
[11] = dose: 200.0 mg/kg/injection, schedule: Q01DX009 (ip), vehicle: saline with Tween-80
[12] = dose: 400.0 mg/kg/injection, schedule: Q01DX009 (ip), vehicle: saline with Tween-80
[13] = dose: 12.5 mg/kg/injection, schedule: Q04DX003 (ip), vehicle: Klucel (hydroxypropylcellulose) (HPC)
[14] = dose: 25.0 mg/kg/injection, schedule: Q04DX003 (ip), vehicle: Klucel (hydroxypropylcellulose) (HPC)

Measured: T/C

CC(C)OC(=O)C(=O)Nc1cccc(Cl)c1
inactive: dose: 100.0 mg/kg/injection, schedule: Q01DX001 (ip), vehicle: Klucel (hydroxypropylcellulose) (HPC) 108 % of control | dose: 200.0 mg/kg/injection, schedule: Q01DX001 (ip), vehicle: Klucel (hydroxypropylcellulose) (HPC) 95 % of control | dose: 400.0 mg/kg/injection, schedule: Q01DX001 (ip), vehicle: Klucel (hydroxypropylcellulose) (HPC) 95 % of control

NC1C2C(CC(=O)O)OCC=C3CN4CCC1(C(=O)C(=O)O)C4CC32 (stereo unspecified)
inactive: dose: 0.5 mg/kg/injection, schedule: Q01DX001 (ip), vehicle: saline 101 % of control | dose: 1.0 mg/kg/injection, schedule: Q01DX001 (ip), vehicle: saline 101 % of control | dose: 2.0 mg/kg/injection, schedule: Q01DX001 (ip), vehicle: saline 102 % of control | dose: 4.0 mg/kg/injection, schedule: Q01DX001 (ip), vehicle: saline 106 % of control

CC(C)=CCOc1ccc2c(c1)OCO2
inactive: dose: 100.0 mg/kg/injection, schedule: Q04DX002 (ip), vehicle: saline with Tween-80 91 % of control | dose: 200.0 mg/kg/injection, schedule: Q04DX002 (ip), vehicle: saline with Tween-80 103 % of control

Cc1c(Cl)cccc1Nc1n[nH]c(=S)s1
inactive: dose: 75.0 mg/kg/injection, schedule: Q01DX001 (ip), vehicle: other 98 % of control | dose: 150.0 mg/kg/injection, schedule: Q01DX001 (ip), vehicle: other 98 % of control | dose: 300.0 mg/kg/injection, schedule: Q01DX001 (ip), vehicle: other 93 % of control

COC(=O)c1c[nH]c2cc(OC(C)C)c(OC(C)C)cc2c1=O
inactive: [1] 96 % of control | [2] 91 % of control | [3] 100 % of control

C[C@]12CC[C@@H]3c4ccc(O)cc4CC[C@H]3[C@@H]1CCC(=O)O2
inactive: dose: 100.0 mg/kg/injection, schedule: Q01DX009 (ip), vehicle: saline 97 % of control | [4] 97 % of control | dose: 200.0 mg/kg/injection, schedule: Q01DX009 (ip), vehicle: saline 95 % of control | [5] 90 % of control | dose: 400.0 mg/kg/injection, schedule: Q01DX009 (ip), vehicle: saline 95 % of control | dose: 400.0 mg/kg/injection, schedule: Q04DX003 (ip), vehicle: saline 100 % of control

C#CCCCCCC#[C][Hg][C]#CCCCCCC#C.C#CCCCCCC#[C][Hg][C]#CCCCCCC#C
inactive: dose: 75.0 mg/kg/injection, schedule: Q01DX001 (ip), vehicle: saline 90 % of control | dose: 150.0 mg/kg/injection, schedule: Q01DX001 (ip), vehicle: saline 92 % of control | dose: 300.0 mg/kg/injection, schedule: Q01DX001 (ip), vehicle: saline 95 % of control

N#C/C(=C\c1cccc(N)c1)c1ccccc1
inactive: [1] 100 % of control | [2] 95 % of control

CCCCCCC(C)O[Si](C)Cc1ccccc1 (stereo unspecified)
inactive: [6] 95 % of control | [7] 97 % of control | [8] 94 % of control

COC1=CC23CCN(C)C(CCc4cc(OC)c(OC)c(OC)c42)C3=CC1=O (stereo unspecified)
inactive: dose: 25.0 mg/kg/injection, schedule: Q04DX002 (ip), vehicle: saline 114 % of control | dose: 50.0 mg/kg/injection, schedule: Q04DX002 (ip), vehicle: saline 108 % of control | dose: 100.0 mg/kg/injection, schedule: Q04DX002 (ip), vehicle: saline 111 % of control | dose: 200.0 mg/kg/injection, schedule: Q04DX002 (ip), vehicle: saline 105 % of control | dose: 400.0 mg/kg/injection, schedule: Q04DX002 (ip), vehicle: saline 103 % of control

CCOC(=O)CCCc1cccc(OC)c1OC
inactive: [1] 91 % of control | [2] 91 % of control | [3] 98 % of control

CC(C)(C)C1CCC(=N[N+](C)(C)C)CC1 (stereo unspecified)
inactive: [9] 104 % of control

O=C1c2cccc3cccc(c23)C(=O)N1CCCCCCCCN1C(=O)c2cccc3cccc(c23)C1=O
inactive: dose: 100.0 mg/kg/injection, schedule: Q04DX002 (ip), vehicle: Klucel (hydroxypropylcellulose) (HPC) 88 % of control | dose: 200.0 mg/kg/injection, schedule: Q04DX002 (ip), vehicle: Klucel (hydroxypropylcellulose) (HPC) 101 % of control

Nc1ccc(N=Nc2ccc(S(=O)(=O)O)cc2)cc1
inactive: [10] 87 % of control | [11] 95 % of control | [12] 97 % of control

CCCCCCCN=C(N)c1ccc(C(=O)OCc2ccccc2)cc1
inactive: [9] 94 % of control | dose: 200.0 mg/kg/injection, schedule: Q01DX001 (ip), vehicle: saline 90 % of control

COc1ccc2c(O)c(Oc3ccccc3)c(=O)oc2c1
inactive: [4] 87 % of control | [5] 97 % of control

CCOC(=O)c1cnc(SC)nc1OCC
inactive: dose: 12.0 mg/kg/injection, schedule: Q01DX001 (ip), vehicle: Klucel (hydroxypropylcellulose) (HPC) 93 % of control | dose: 25.0 mg/kg/injection, schedule: Q01DX001 (ip), vehicle: Klucel (hydroxypropylcellulose) (HPC) 104 % of control

C=C=[CH][Sn]([c]1ccccc1)([c]1ccccc1)[c]1ccccc1
inactive: dose: 12.5 mg/kg/injection, schedule: Q01DX009 (ip), vehicle: Klucel (hydroxypropylcellulose) (HPC) 100 % of control | [13] 99 % of control | dose: 25.0 mg/kg/injection, schedule: Q01DX009 (ip), vehicle: Klucel (hydroxypropylcellulose) (HPC) 102 % of control | [14] 106 % of control | dose: 50.0 mg/kg/injection, schedule: Q01DX009 (ip), vehicle: Klucel (hydroxypropylcellulose) (HPC) 89 % of control | dose: 50.0 mg/kg/injection, schedule: Q04DX003 (ip), vehicle: Klucel (hydroxypropylcellulose) (HPC) 99 % of control

CC1(O)CC2CCC1C2 (stereo unspecified)
inactive: dose: 100.0 mg/kg/injection, schedule: Q01DX009 (ip), vehicle: other 102 % of control | [10] 92 % of control | [6] 95 % of control | dose: 200.0 mg/kg/injection, schedule: Q01DX009 (ip), vehicle: other 120 % of control | [11] 106 % of control | [7] 100 % of control | dose: 400.0 mg/kg/injection, schedule: Q01DX009 (ip), vehicle: other 104 % of control | [12] 92 % of control | [8] 91 % of control

CC1CCCCN1C(=O)Nc1ccc(Cl)cc1Cl (stereo unspecified)
inactive: dose: 50.0 mg/kg/injection, schedule: Q01DX009 (ip), vehicle: saline with Tween-80 91 % of control | [10] 102 % of control | [11] 98 % of control

c1ccc(CC[P+](c2ccccc2)(c2ccccc2)c2ccccc2)cc1
inactive: dose: 0.78 mg/kg/injection, schedule: Q01DX009 (ip), vehicle: Klucel (hydroxypropylcellulose) (HPC) 97 % of control | dose: 1.56 mg/kg/injection, schedule: Q01DX009 (ip), vehicle: Klucel (hydroxypropylcellulose) (HPC) 96 % of control | dose: 3.13 mg/kg/injection, schedule: Q01DX009 (ip), vehicle: Klucel (hydroxypropylcellulose) (HPC) 92 % of control | [13] 101 % of control | [14] 103 % of control

COc1cc([N+](=O)[O-])c2nc(C(Br)(Br)Br)ccc2c1[N+](=O)[O-]
inactive: dose: 50.0 mg/kg/injection, schedule: Q01DX001 (ip), vehicle: carboxymethylcellulose (CMC) 105 % of control | dose: 100.0 mg/kg/injection, schedule: Q01DX001 (ip), vehicle: carboxymethylcellulose (CMC) 111 % of control | dose: 200.0 mg/kg/injection, schedule: Q01DX001 (ip), vehicle: carboxymethylcellulose (CMC) 96 % of control | dose: 400.0 mg/kg/injection, schedule: Q01DX001 (ip), vehicle: carboxymethylcellulose (CMC) 103 % of control
